Experimental findings from US3932407A, “Optionally substituted 1,2,3,5-tetrahydroimidezo(2,1-b)-quinazolin-2-ones and 6(H)-1,2,3,4-tetrahydropyimido(2,1-b)quinazolin-2-ones” (Bristol-Myers Company, priority 1974, dated 1976) are described below.

In brackets after ≈: the same amount, converted by molar mass.

In general, EC50 refers to the concentration giving half of the maximal effect. For orientation: ED50 means the dose at which the effect has come halfway, by size or by number of responders.

One test concerns adenosine diphosphate (ADP) induced platelet aggregation. Put plainly: In vitro inhibition of ADP induced platelet aggregation (aggregometer method of Born, modified). Type of test: cell-based. The following applies: Oryctolagus cuniculus; rabbit platelet rich plasma, ADP 0.5 mcg./ml. As for the experimental part:
(§1) The aggregometer method of Born (1), as modified by Mustard et al. (2) was used to assess the in vitro activity of the various compounds as to inhibition of adenosine diphosphate (ADP) and collagen induced platelet aggregation. Platelet rich plasma was separated by centrifugation from citrated (3.8 percent) rabbit blood. ADP in final concentration of 0.5 mcg./ml. or 0.05 ml. of a collagen suspension prepared according to the method described by Evans et al. (3) was used to induce aggregation. The various compounds tested were dissolved in dimethylsulfoxide (DMSO) so that 5 mcl. added to the platelet rich plasma would yield the desired test concentration. Vehicle control trials were done and compared with aggregation induced in platelet rich plasma containing various concentrations of the test compounds. Dose response curves were obtained and Effective Concentration (EC50) values calculated.
(§2) 2. mustard, J. F., Hegardt, B. Rowsell, H. C. and MacMillan, R. L., J. Lab. Clin. Med. 64, 548 (1964).
In turn, `O=C1CN2Cc3cc4c(cc3N=C2N1)OCO4` [Compound 18] showed an EC50 of 0.7 µg/mL (≈ 3.03 µM).

The compound `O=C1CCN2Cc3ccccc3N=C2N1` [Compound 19, 6-[H]-1,2,3,4-Tetrahydropyrimido[2,1-b]-quinazolin-2-one] had an EC50 of 25 µg/mL (≈ 124 µM).

The compound `O=C1CCN2Cc3c(Cl)cccc3N=C2N1` [Compound 20] came in with an EC50 of 6 µg/mL (≈ 25.5 µM).

As to `O=C1CCN2Cc3cc(Br)ccc3N=C2N1` [Compound 21, 8-Bromo-6-[H]-1,2,3,4-tetrahydropyrimido[2,1-b]quinazolin-2-one], a half-maximal response (EC50) required 3 µg/mL (≈ 10.7 µM).

As to `Cc1cccc2c1CN1CCC(=O)NC1=N2` [Compound 22], the midpoint of the response, the EC50, lay at 3 µg/mL (≈ 13.9 µM).

For `Cc1ccc2c(c1)CN1CCC(=O)NC1=N2` [Compound 23], the EC50 came out at 16 µg/mL (≈ 74.3 µM).

Compound `COc1cccc2c1CN1CCC(=O)NC1=N2` [Compound 25] came in with an EC50 of 2 µg/mL (≈ 8.65 µM).

In turn, `COc1ccc2c(c1)CN1CCC(=O)NC1=N2` [Compound 26] showed an EC50 of 6 µg/mL (≈ 25.9 µM).

For `CC1c2ccccc2N=C2NC(=O)CN21` (stereo not drawn) [Compound 29], a half-maximal response (EC50) required 2 µg/mL (≈ 9.94 µM).

In the case of `Cc1c(Cl)ccc2c1CN1CC(=O)NC1=N2` [Compound 45, 7-Chloro-6-methyl-1,2,3,5-tetrahydroimidazo[2,1-b]quinazolin-2-one], the EC50 was 0.09 µg/mL (≈ 0.382 µM).

Another test has as its system ADP induced platelet aggregation. Kind of test: In vivo/in vitro ADP induced platelet aggregation after P.O. dosing of dogs. Details: species or system dog. The following applies: 1 to 2 hours after dosing. As for the experimental part:
(§3) *In vivo/In vitro testing:
(§4) Before dosing the animals, blood samples are taken. The blood is centrifuged to obtain the blood platelet-rich plasma. Aggregation of this plasma is induced with ADP or collagen. This is the control.
(§5) The animals are then dosed with the compounds to be tested (orally or parenterally). Depending upon the route of administration, 1 to 2 hours are allowed to elapse after dosing. Blood is drawn and the same procedure employed as for the control in untreated animals.
Consider `Cc1c(Cl)ccc2c1CN1CC(=O)NC1=N2` [Compound 45, 7-Chloro-6-methyl-1,2,3,5-tetrahydroimidazo[2,1-b]quinazolin-2-one], for which the “In Vivo/In Vitro Dogs P.O. 5 mg./kg. ADP % Inhibition” value was determined as 46 ±8%.

Another test shares this test system. Put plainly: In vivo/in vitro ADP induced platelet aggregation after I.P. dosing of rabbits. Details: species or system rabbit. To be noted: Oryctolagus cuniculus, ip, 1 to 2 hours after dosing, dose for 50% inhibition of aggregation. The procedure:
as §3, §4, §5
The dose required to produce 50% inhibition of the aggregation is determined by dose response data obtained in this manner.
`O=C1CN2Cc3cc4c(cc3N=C2N1)OCO4` [Compound 18] had an ED50 of over 50 mg/kg.

For the compound `O=C1CCN2Cc3c(Cl)cccc3N=C2N1` [Compound 20], the ED50 stood at 8 mg/kg.

Take `O=C1CCN2Cc3cc(Br)ccc3N=C2N1` [Compound 21, 8-Bromo-6-[H]-1,2,3,4-tetrahydropyrimido[2,1-b]quinazolin-2-one]: the ED50 is 9 mg/kg.

`Cc1cccc2c1CN1CCC(=O)NC1=N2` [Compound 22] yielded an ED50 of over 10 mg/kg.

Compound `COc1cccc2c1CN1CCC(=O)NC1=N2` [Compound 25] yielded an ED50 of 8 mg/kg.

`COc1ccc2c(c1)CN1CCC(=O)NC1=N2` [Compound 26]: the ED50 was over 10 mg/kg.

As to `CC1c2ccccc2N=C2NC(=O)CN21` (stereo not drawn) [Compound 29], the 50% effect level (ED50) was put at a dose of 35 mg/kg.

For the next test, the system named is collagen induced platelet aggregation. Put plainly: In vitro inhibition of collagen induced platelet aggregation (aggregometer method of Born, modified). The format is cell-based. The following applies: Oryctolagus cuniculus; rabbit platelet rich plasma, 0.05 ml. collagen suspension. As for the experimental part:
as §1, §2
3. Evans, G. Marian M. C., Packham, M. A., Nishizawa, E. E., Mustard, J. F. and Murphy, E. A., J. Exp. Med., 128, 877 (1968).
Compound `O=C1CN2Cc3cc4c(cc3N=C2N1)OCO4` [Compound 18] came in with an EC50 of 0.07 µg/mL (≈ 0.303 µM).

On to `O=C1CCN2Cc3ccccc3N=C2N1` [Compound 19, 6-[H]-1,2,3,4-Tetrahydropyrimido[2,1-b]-quinazolin-2-one], for which the EC50 was 4 µg/mL (≈ 19.9 µM).

`O=C1CCN2Cc3c(Cl)cccc3N=C2N1` [Compound 20]: a half-maximal effect (EC50) was put at 0.7 µg/mL (≈ 2.97 µM).

`O=C1CCN2Cc3cc(Br)ccc3N=C2N1` [Compound 21, 8-Bromo-6-[H]-1,2,3,4-tetrahydropyrimido[2,1-b]quinazolin-2-one]: the EC50 worked out at 1.5 µg/mL (≈ 5.35 µM).

`Cc1cccc2c1CN1CCC(=O)NC1=N2` [Compound 22] had an EC50 of 0.3 µg/mL (≈ 1.39 µM).

In the case of `Cc1ccc2c(c1)CN1CCC(=O)NC1=N2` [Compound 23], the EC50 is 2 µg/mL (≈ 9.29 µM).

In turn, `COc1cccc2c1CN1CCC(=O)NC1=N2` [Compound 25] had an EC50 of 0.4 µg/mL (≈ 1.73 µM).

In the case of `COc1ccc2c(c1)CN1CCC(=O)NC1=N2` [Compound 26], the midpoint of the response, the EC50, lay at 1.5 µg/mL (≈ 6.49 µM).

In the case of `COc1cc2c(cc1OC)N=C1NC(=O)CCN1C2` [Compound 28], a half-maximal effect (EC50) was put at 32 µg/mL (≈ 122 µM).

`CC1c2ccccc2N=C2NC(=O)CN21` (stereo not drawn) [Compound 29]: the EC50 amounted to 7 µg/mL (≈ 34.8 µM).

Regarding `Cc1c(Cl)ccc2c1CN1CC(=O)NC1=N2` [Compound 45, 7-Chloro-6-methyl-1,2,3,5-tetrahydroimidazo[2,1-b]quinazolin-2-one], the EC50 came out at 0.012 µg/mL (≈ 0.0509 µM).

For the next test, the system named is blood pressure. Put plainly: Blood pressure of genetically hypertensive rats, P.O. 50 mg/kg. The format is in vivo. The following applies: 50 mg./kg. orally, tested as hydrochloride salts, + increase, - decrease in b.p. As for the experimental part:
The blood pressure of unanesthetized rats and dogs was measured directly by means of a transducer attached to an intra-arterial cannula and in anesthetized dogs by a mercury manometer attached to a carotid cannula.
The compounds of the instant invention were tested as the hydrochloride salts by the above method in genetically hypertensive rats in doses of 50 mg./kg. orally.
On to `O=C1CCN2Cc3cc(Br)ccc3N=C2N1` [Compound 21, 8-Bromo-6-[H]-1,2,3,4-tetrahydropyrimido[2,1-b]quinazolin-2-one], for which the “Blood Pressure % Change Rats P.O. 50 mg./kg.” value is “Toxic”.

Staying with this test, now noted: Rattus norvegicus, po, 50 mg./kg. orally, tested as hydrochloride salts, + increase, - decrease in b.p.
Take `COc1cccc2c1N=C1NC(=O)CN1C2` [Compound 15]: the change in vivo at 50 mg/kg was -16 ± 3%.

Take `O=C1CN2Cc3cc4c(cc3N=C2N1)OCO4` [Compound 18]: the change in vivo at 50 mg/kg was -25 ± 12%.

In the case of `O=C1CCN2Cc3ccccc3N=C2N1` [Compound 19, 6-[H]-1,2,3,4-Tetrahydropyrimido[2,1-b]-quinazolin-2-one], the change in vivo at 50 mg/kg is -32 ± 4%.

In the case of `O=C1CCN2Cc3c(Cl)cccc3N=C2N1` [Compound 20], the change in vivo at 50 mg/kg is -12 ± 1%.

For the compound `Cc1cccc2c1CN1CCC(=O)NC1=N2` [Compound 22], the change in vivo at 50 mg/kg was -26 ± 9%.

As to `Cc1ccc2c(c1)CN1CCC(=O)NC1=N2` [Compound 23], the change in vivo at 50 mg/kg is -7 ± 2%.

As for `Cc1cccc2c1N=C1NC(=O)CCN1C2` [Compound 24], the change in vivo at 50 mg/kg was -19%.

Consider `COc1cccc2c1CN1CCC(=O)NC1=N2` [Compound 25], for which the change in vivo at 50 mg/kg is -5 ± 3%.

As for `COc1ccc2c(c1)CN1CCC(=O)NC1=N2` [Compound 26], the change in vivo at 50 mg/kg was -19 ± 6%.

Consider `COc1cccc2c1N=C1NC(=O)CCN1C2` [Compound 27], for which the change in vivo at 50 mg/kg amounted to 1%.

Consider `COc1cc2c(cc1OC)N=C1NC(=O)CCN1C2` [Compound 28], for which the change in vivo at 50 mg/kg stood at 7%.

Consider `CC1c2ccccc2N=C2NC(=O)CN21` (stereo not drawn) [Compound 29], for which the change in vivo at 50 mg/kg was -28%.

`O=C1CN2Cc3c(ccc4ccccc34)N=C2N1` [Compound 39]: the change in vivo at 50 mg/kg was -59%.

For `Cc1cccc2c1C(C)N1CC(=O)NC1=N2` (stereo not drawn) [Compound 50, 5,6-dimethyl-1,2,3,5-tetrahydroimidazo[2,1-b]quinazolin-2-one], the change in vivo at 50 mg/kg was -49%.

As to `Cc1ccc2c(c1)C(C)N1CC(=O)NC1=N2` (stereo not drawn) [Compound 51, 5,7-Dimethyl-1,2,3,5-tetrahydroimidazo-[2,1-b]quinazolin-2-one], the change in vivo at 50 mg/kg is -34%.
